Our source for the melting point values is patent publication US8546383B2, “Chiral fused [1,2]imidazo[4,5-c] ring compounds” (3M Innovative Properties Company, priority 2004, dated 2013).

`C[C@H]1COCc2nc3c(N)nc4ccc(OCC(=O)N5CCOCC5)cc4c3n21` [Example 55, (11S)-11-Methyl-2-(2-morpholin-4-yl-2-oxoethoxy)-10,11-dihydro-8H-[1,4]oxazino[4′,3′:1,2]imidazo[4,5-c]quinolin-6-amine] displayed a melting point of 226 to 228 °C.
Then `C[C@H]1COCc2nc3c(N)nc4ccc(OCCN5CCOCC5)cc4c3n21` [Example 56, (11S)-11-Methyl-2-(2-morpholin-4-ylethoxy)-10,11-dihydro-8H-[1,4]oxazino[4′,3′:1,2]imidazo[4,5-c]quinolin-6-amine], with 186 to 188 °C.
In turn, `CCOc1ccc2nc(N)c3nc4n(c3c2c1)[C@@H](C)COC4` [Example 57, (11S)-2-Ethoxy-11-methyl-10,11-dihydro-8H-[1,4]oxazino[4′,3′:1,2]imidazo[4,5-c]quinolin-6-amine] showed a melting point of 187 to 188 °C.
As to `CC(C)[C@H]1COCc2nc3c(N)nc4cc(OCC(=O)N5CCOCC5)ccc4c3n21` [Example 58, (11S)-11-Isopropyl-3-(2-morpholin-4-yl-2-oxoethoxy)-10,11-dihydro-8H-[1,4]oxazino[4′,3′:1,2]imidazo[4,5-c]quinolin-6-amine], the melting point lay in the range of 137 to 139 °C.
Then `CC(C)[C@H]1COCc2nc3c(N)nc4cc(OCCN5CCOCC5)ccc4c3n21` [Example 59, (11S)-11-Isopropyl-3-(2-morpholin-4-ylethoxy)-10,11-dihydro-8H-[1,4]oxazino[4′,3′:1,2]imidazo[4,5-c]quinolin-6-amine], with 194 to 195 °C; and `C[C@H]1COCc2nc3c(N)nc4cc(CCS(C)(=O)=O)ccc4c3n21` [Example 61, (11S)-11-Methyl-3-[2-(methylsulfonyl)ethyl]-10,11-dihydro-8H-[1,4]oxazino[4′,3′:1,2]imidazo[4,5-c]quinolin-6-amine], with 205 to 206 °C; and `C[C@H]1COCc2nc3c(N)nc4cc(/C=C/C(=O)N5CCOCC5)ccc4c3n21` [Example 62, (11S)-11-Methyl-3-[(1E)-3-morpholin-4-yl-3-oxoprop-1-enyl]-10,11-dihydro-8H-[1,4]oxazino[4′,3′:1,2]imidazo[4,5-c]quinolin-6-amine], with > 250 °C.
Then `C[C@H]1COCc2nc3c(N)nc4cc(CCC(=O)N5CCOCC5)ccc4c3n21` [Example 63, (11S)-11-Methyl-3-(3-morpholin-4-yl-3-oxopropyl)-10,11-dihydro-8H-[1,4]oxazino[4′,3′:1,2]imidazo[4,5-c]quinolin-6-amine], with 245 to 247 °C.
Compound `C[C@H]1COCc2nc3c(N)nc4cc(CCC(=O)N(C)C)ccc4c3n21` [Example 64, 3-[(11S)-6-Amino-11-methyl-10,11-dihydro-8H-[1,4]oxazino[4′,3′:1,2]imidazo[4,5-c]quinolin-3-yl]-N,N-dimethylpropanamide] registered a melting point of 235 to 237 °C.

Broadly, the melting point is the temperature, or range, at which the solid turns liquid.
